The numbers were not newly measured in patent US9376364B2, “Acid/salt separation” (PURAC BIOCHEM B.V., priority 2011, dated 2016), which cites them from elsewhere.

Each structure is given as a SMILES string.

The conditions of the series: at 20 Celsius.

Consider `[Cl-].[Cl-].[Mg+2]` [MgCl2, magnesium chloride], for which the “saturation point of MgCl2 in water” value was 55 g/100 g water.
